Assay results from PMC4117522, “Proteasome Inhibitors Alter Levels of Intracellular Peptides in HEK293T and SH-SY5Y Cells” (PLoS ONE, 2014).
Several values for one entry are separate records, joined by “and”; a condition that tells them apart may be missing. Identical values can stand only once. Residues, ends and D or L forms follow the SMILES beside them. *: point of attachment. Cbz = O=C(OCc1ccccc1)*

Key:
SH-SY5Y cells = assay: Quantitative peptidomics (TMAB isotopic labels, LC-MS/MS) of inhibitor-treated SH-SY5Y cells; format: cell-based, human
Procedure: (§1) HEK293T and SH-SY5Y cells were grown to 80–90% confluence in DMEM and RPMI supplemented with 10% fetal bovine serum and penicillin/streptomycin. A single plate of cells (150 mm×25 mm) was used for each group. At the start of the experiment, media were removed from the plates and cells were washed with DPBS (138 mM NaCl, 8.06 mM Na2HPO4, 2.67 mM KCl, 1.47 mM KH2PO4, 0.9 mM CaCl2 and 0.49 mM MgCl2). This was followed by addition of serum-free media containing the proteasome or aminopeptidase inhibitors, or 0.05% DMSO as a control for the inhibitors that were soluble in DMSO. Each experiment consisted of two control groups and two or three replicate groups of cells treated with one of the inhibitors. The cells were incubated at 37°C for 20 minutes, following which media containing the inhibitor was removed, cells were washed with DPBS, detached from the plate by scraping into DPBS (without trypsin), and centrifuged at 800×g for 5 min. The wash buffer was supplemented with the appropriate inhibitor at the same concentration as used for the treatment, thereby ensuring that the changes induced in peptide levels were not reversed during harvesting of cells due to possible dissociation of the reversible inhibitors. The wash time (including centrifugation) was 15 minutes, for a total treatment time of 35 minutes. After centrifugation, the cell pellet was resuspended in 1 ml of 80°C water and incubated in an 80°C water bath for 20 minutes to inactivate proteases. The mixture was again centrifuged (13,000×g, 30 min, 4°C) and was stored at −80°C overnight. For peptide extraction, the samples were thawed and centrifuged again. The lysate was subsequently cooled on ice and acidified with HCl to a final concentration of 10 mM. After 15 min incubation on ice, the lysate was centrifuged at 13,000×g for 30 min at 4°C. To the supernatant, 250 µL of dibasic sodium phosphate (0.4 M, pH 9.5) was added and the mixture was stored at −80°C until labeling.
(§2) The labeling protocol has been earlier described in detail. Each group within an experiment (control/treated) was labeled with a different isotopic tag. The TMAB-NHS labels were dissolved in DMSO to a concentration of 400 µg/µL and 15 mg of label was used per 150 mm plate of cells. […] At the beginning, the pH of the peptide extract was adjusted to 9.5 with 1 M NaOH. Labeling was performed over 8 rounds; 4.69 µL of the label was added to the extract every 20 min. The pH was measured between each round and if necessary, brought back to 9.5 for the first five rounds. For rounds 6–8, the pH was not adjusted after the addition of the TMAB-NHS reagent. After the final round of label addition, the pH was adjusted to 9.5 again and the extracts were incubated at room temperature for 90 min. Thereafter, 30 µL of 2.5 M glycine was added to quench any unreacted label. Following 40 min incubation at room temperature, the labeled extracts for a single experiment were pooled and filtered through Amicon Ultracel-10 K units. It is important to ensure that only N-terminal amines and lysine side-chain amines of peptides are TMAB-labeled and not tyrosines. To hydrolyze any labeled tyrosine, 30 µL of a 2 M solution of hydroxylamine hydrochloride (pH 3.7) was added over three rounds to the pooled and filtered sample. The pH was measured after the addition of hydroxylamine and adjusted to 9.0 with 1 M NaOH. The samples were desalted through PepClean C-18 spin columns (Thermo Scientific, Rockford, IL, USA) by following manufacturer’s instructions. Peptides were eluted using 160 µL of 0.5% TFA and 70% acetonitrile, frozen at −80°C and then lyophilized in a vacuum centrifuge and stored at −80°C until analysis by mass spectrometry.
(§3) The LC-MS/MS experiments were performed on a Synapt G2 mass spectrometer coupled to a NanoAcquity capillary liquid chromatography system (Waters Co., Milford, MA, USA).

HEK293T cells = assay: Quantitative peptidomics (TMAB isotopic labels, LC-MS/MS) of inhibitor-treated HEK293T cells; format: cell-based, human; conditions: HEK293T cells, 35 min; 2.5 µM MG132, 1 µM other inhibitors
Procedure: as §1, §2, §3

| Compound | Relative Levels of peptide ADKVPKTAENFRAL (PPIA) (SH-SY5Y cells; 1 uM, 35', SH-SY5Y) | Relative Levels of peptide Ac-AAPVDLELKKAFTEL (PFDN1) (SH-SY5Y cells; 1 uM, 35', SH-SY5Y) | Relative Levels of peptide Ac-ASKRALVIL (PARK7) (SH-SY5Y cells; 1 uM, 35', SH-SY5Y) | Relative Levels of peptide Ac-ASKRALVILA (PARK7) (SH-SY5Y cells; 1 uM, 35', SH-SY5Y) | Relative Levels of peptide Ac-MDTSRVQPIKL (RPS28) (SH-SY5Y cells; 1 uM, 35', SH-SY5Y) | Relative Levels of peptide Ac-SSEEGKLFVGGLNF (RBM3) (SH-SY5Y cells; 1 uM, 35', SH-SY5Y) | Relative Levels of peptide Ac-SYGRPPPDVEGMTSLKVDNL (SRSF2) (SH-SY5Y cells; 1 uM, 35', SH-SY5Y) | Relative Levels of peptide GAIRDIDL (SRSF1) (SH-SY5Y cells; 1 uM, 35', SH-SY5Y) | Relative Levels of peptide KHTGPGILSM (PPIA) (SH-SY5Y cells; 1 uM, 35', SH-SY5Y) | change in levels of intracellular peptides (peptidome) (HEK293T cells) | change in levels of intracellular peptides (peptidome) (SH-SY5Y cells; SH-SY5Y cells, 35 min, 2.5 µM MG132, 1 µM other inhibitors) |
| --- | --- | --- | --- | --- | --- | --- | --- | --- | --- | --- | --- |
| CC(=O)N[C@@H](CSC(=O)[C@]1([C@@H](O)C(C)C)NC(=O)[C@H](C)[C@@H]1O)C(=O)O [Lactacystin] | < 0.20 | < 0.20 | 0.25 and < 0.20 and 0.21 | 0.52 and 0.32 and 0.42 | 0.47 and 0.49 and 0.51 | 0.55 and 0.38 and 0.49 | 0.63 and 0.36 and 0.45 | < 0.20 | 0.26 and 0.24 and 0.25 |  |  |
| CC(C)C[C@@H](C=O)NC(=O)[C@H](CC(C)C)NC(=O)[C@H](CC(C)C)NC(=O)OCc1ccccc1 [MG132, reference compound] (Cbz-Leu-Leu-Leu-aldehyde) |  |  |  |  |  |  |  |  |  | the majority of peptides was greatly decreased |  |
| CC(C)C[C@H](NC(=O)[C@H](CCc1ccccc1)NC(=O)CN1CCOCC1)C(=O)N[C@@H](Cc1ccccc1)C(=O)N[C@@H](CC(C)C)C(=O)[C@@]1(C)CO1 [carfilzomib, reference compound] |  |  |  |  |  |  |  |  |  | decreased the levels of many peptides but also elevated levels of a number of other peptides | decreased the levels of many peptides but also elevated levels of a number of other peptides |
